Columns and labels:
[1] = system: cocklebur; experiment: Test B pre/postemergence cocklebur; assay type: in vivo, Xanthium strumarium
In short: (§1)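 Response is a visual 0-to-10 score relative to untreated plants, where 0 means no effect and 10 means complete control, taken twelve to sixteen days after application. Treatments went onto soil at planting and onto foliage of 1- to 4-leaf plants, using a surfactant-containing non-phytotoxic solvent.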

[2] = system: bedstraw; experiment: Test B pre/postemergence bedstraw; assay type: in vivo, Galium aparine
In short: as §1

[3] = system: sugar beet; experiment: Test B pre/postemergence sugar beet; assay type: in vivo, Beta vulgaris
In short: as §1

[4] = system: crabgrass; experiment: Test B pre/postemergence crabgrass; assay type: in vivo, Digitaria sanguinalis
In short: as §1

[5] = system: purple nutsedge; experiment: Test B pre/postemergence purple nutsedge; assay type: in vivo, Cyperus rotundus
In short: as §1

[6] = system: wheat; experiment: Test B pre/postemergence wheat; assay type: in vivo, Triticum aestivum
In short: as §1

[7] = system: blackgrass; experiment: Test B pre/postemergence blackgrass; assay type: in vivo, Alopecurus myosuroides
In short: as §1

[8] = system: rape; experiment: Test B pre/postemergence rape; assay type: in vivo, Brassica napus
In short: as §1

[9] = system: velvetleaf; experiment: Test B pre/postemergence velvetleaf; assay type: in vivo, Abutilon theophrasti
In short: as §1

[10] = system: giant foxtail; experiment: Test B pre/postemergence giant foxtail; assay type: in vivo, Setaria faberii
In short: as §1

[11] = system: corn; experiment: Test B pre/postemergence corn; assay type: in vivo, Zea mays
In short: as §1

[12] = system: wild oat; experiment: Test B pre/postemergence wild oat; assay type: in vivo, Avena fatua
In short: as §1

[13] = system: morningglory; experiment: Test B pre/postemergence morningglory; assay type: in vivo, Ipomoea hederacea
In short: as §1

[14] = system: soybean; experiment: Test B pre/postemergence soybean; assay type: in vivo, Glycine max
In short: as §1

[15] = system: surinam grass; experiment: Test B pre/postemergence surinam grass; assay type: in vivo, Brachiaria decumbens
In short: as §1

[16] = system: pigweed; experiment: Test B pre/postemergence pigweed; assay type: in vivo, Amaranthus retroflexus
In short: as §1

[17] = Postemergence, Rate 62 g/ha, scale 0 to 10, 0 is no effect, 10 is complete control
[18] = Postemergence, Rate 125 g/ha, scale of 0 to 10 where 0 is no effect and 10 is complete control
[19] = Preemergence, Rate 125 g/ha, scale of 0 to 10 where 0 is no effect and 10 is complete control
[20] = Preemergence, Rate 250 g/ha, scale 0 (no effect) to 10 (complete control)
[21] = Rate 62 g/ha, Preemergence, scale 0 to 10
[22] = Rate 250 g/ha, Postemergence, scale 0 to 10, 0 is no effect, 10 is complete control
[23] = Rate 500 g/ha, Postemergence, scale 0 to 10, 0 is no effect, 10 is complete control
[24] = Rate 500 g/ha, Preemergence, scale 0 to 10 (0 no effect, 10 complete control)

Cc1nc(C(C)n2c(=O)on(C(=O)N(c3ccccc3)C(C)C)c2=O)sc1C (stereo not shown) [Compound 756]
Plant response rating, Cocklebur [1, 17]: 0
Cocklebur plant response rating [1, 18]: 0
Plant response rating, Cocklebur [1, 19]: 0
Cocklebur plant response rating [1, 20]: 0
Cocklebur plant response rating [1, 21]: 0
Cocklebur plant response rating [1, 22]: 0
Cocklebur plant response rating [1, 23]: 0
Cocklebur plant response rating [1, 24]: 0
Plant response rating, Bedstraw [2, 17]: 0
Bedstraw plant response rating [2, 18]: 0
Plant response rating, Bedstraw [2, 19]: 0
Bedstraw plant response rating [2, 20]: 0
Bedstraw plant response rating [2, 21]: 0
Bedstraw plant response rating [2, 22]: 3
Bedstraw plant response rating [2, 24]: 0
Plant response rating, Sugarbeets [3, 17]: 0
Plant response rating, Sugarbeets [3, 19]: 0
Sugarbeets plant response rating [3, 20]: 0
Sugarbeets plant response rating [3, 21]: 0
Sugarbeets plant response rating [3, 22]: 0
Sugarbeets plant response rating [3, 23]: 0
Sugarbeets plant response rating [3, 24]: 0
Plant response rating, Crabgrass [4, 17]: 0
Crabgrass plant response rating [4, 18]: 0
Plant response rating, Crabgrass [4, 19]: 9
Crabgrass plant response rating [4, 20]: 9
Crabgrass plant response rating [4, 21]: 4
Crabgrass plant response rating [4, 22]: 0
Crabgrass plant response rating [4, 23]: 3
Crabgrass plant response rating [4, 24]: 9
Plant response rating, Nutsedge [5, 17]: 0
Nutsedge plant response rating [5, 18]: 0
Plant response rating, Nutsedge [5, 19]: 0
Nutsedge plant response rating [5, 20]: 0
Nutsedge plant response rating [5, 22]: 0
Nutsedge plant response rating [5, 23]: 0
Nutsedge plant response rating [5, 24]: 7
Plant response rating, Wheat [6, 17]: 0
Plant response rating, Wheat [6, 19]: 0
Wheat plant response rating [6, 20]: 0
Wheat plant response rating [6, 21]: 0
Wheat plant response rating [6, 22]: 0
Wheat plant response rating [6, 23]: 0
Wheat plant response rating [6, 24]: 0
Plant response rating, Blackgrass [7, 17]: 0
Blackgrass plant response rating [7, 18]: 0
Plant response rating, Blackgrass [7, 19]: 2
Blackgrass plant response rating [7, 20]: 4
Blackgrass plant response rating [7, 21]: 0
Blackgrass plant response rating [7, 22]: 0
Blackgrass plant response rating [7, 23]: 3
Blackgrass plant response rating [7, 24]: 7
Plant response rating, Rape [8, 17]: 0
Rape plant response rating [8, 18]: 0
Plant response rating, Rape [8, 19]: 0
Rape plant response rating [8, 20]: 0
Rape plant response rating [8, 21]: 0
Rape plant response rating [8, 22]: 0
Rape plant response rating [8, 23]: 3
Rape plant response rating [8, 24]: 0
Plant response rating, Velvetleaf [9, 17]: 0
Plant response rating, Velvetleaf [9, 19]: 0
Velvetleaf plant response rating [9, 20]: 0
Velvetleaf plant response rating [9, 21]: 0
Velvetleaf plant response rating [9, 22]: 0
Velvetleaf plant response rating [9, 23]: 0
Velvetleaf plant response rating [9, 24]: 0
Plant response rating, Giant foxtail [10, 17]: 0
Giant foxtail plant response rating [10, 18]: 0
Plant response rating, Giant foxtail [10, 19]: 9
Giant foxtail plant response rating [10, 20]: 9
Giant foxtail plant response rating [10, 21]: 7
Giant foxtail plant response rating [10, 22]: 0
Giant foxtail plant response rating [10, 23]: 0
Giant foxtail plant response rating [10, 24]: 9
Plant response rating, Corn [11, 17]: 0
Corn plant response rating [11, 18]: 0
Plant response rating, Corn [11, 19]: 0
Corn plant response rating [11, 20]: 0
Corn plant response rating [11, 21]: 0
Corn plant response rating [11, 22]: 0
Corn plant response rating [11, 23]: 0
Corn plant response rating [11, 24]: 0
Plant response rating, Wild oats [12, 17]: 0
Plant response rating, Wild oats [12, 19]: 0
Wild oats plant response rating [12, 20]: 0
Wild oats plant response rating [12, 21]: 0
Wild oats plant response rating [12, 22]: 0
Wild oats plant response rating [12, 23]: 0
Wild oats plant response rating [12, 24]: 0
Plant response rating, Morningglory [13, 17]: 4
Morningglory plant response rating [13, 18]: 7
Plant response rating, Morningglory [13, 19]: 0
Morningglory plant response rating [13, 20]: 0
Morningglory plant response rating [13, 21]: 0
Morningglory plant response rating [13, 22]: 10
Morningglory plant response rating [13, 23]: 10
Morningglory plant response rating [13, 24]: 0
Plant response rating, Soybean [14, 17]: 2
Plant response rating, Soybean [14, 19]: 0
Soybean plant response rating [14, 20]: 0
Soybean plant response rating [14, 21]: 0
Soybean plant response rating [14, 22]: 2
Soybean plant response rating [14, 23]: 2
Soybean plant response rating [14, 24]: 0
Plant response rating, B. signalgrass [15, 17]: 0
B. signalgrass plant response rating [15, 18]: 0
B. signalgrass plant response rating ([15]; Preemergence, Rate 62 g/ha, scale of 0 to 10 where 0 is no effect and 10 is complete control): 0
Plant response rating, B. signalgrass [15, 19]: 0
B. signalgrass plant response rating [15, 20]: 0
B. signalgrass plant response rating [15, 22]: 0
B. signalgrass plant response rating [15, 23]: 2
B. signalgrass plant response rating [15, 24]: 3
Plant response rating, Redroot pigweed [16, 17]: 0
Redroot pigweed plant response rating [16, 18]: 0
Plant response rating, Redroot pigweed [16, 19]: 0
Redroot pigweed plant response rating [16, 20]: 0
Redroot pigweed plant response rating [16, 21]: 0
Redroot pigweed plant response rating [16, 22]: 0
Redroot pigweed plant response rating [16, 23]: 3
Redroot pigweed plant response rating [16, 24]: 0

From US6737383B1, “Herbicidal oxadiazolidines” (priority 1999, dated 2004)
